“Also recorded” adds a separate entry of the source. Where no end group is shown, it is not given here. [ ]: non-standard residue; d: D form.
Tests used:
H929 cells [1] = assay: HS-5 co-culture (SF+A) model of drug resistance, melphalan apoptosis; type: cell-based
Description: (§1) Co-culture model. HS-5/GFP cells were plated at a density of 500,000 cells per ml and incubated overnight. Myeloma cells were incubated with vehicle control (water), 50 μg/ml HYD1 or 50 μg/ml HYD1S 30 minutes prior to the addition of myeloma cells (400,000 cell/ml) to either control plates or plates containing HS-5 cells. Myeloma cells were incubated with HS-5 cells for three hours prior to the addition of melphalan. Apoptotic cells were measured in GFP negative myeloma cells, by annexin PE staining and FACS analysis (n=9). ANOVO was performed to determine significance between conditions.
(§2) Briefly, 8226 myeloma cells were pre-incubated with varying concentrations of either HYD1 or the scrambled HYD1S peptide for 30 minutes prior to allowing cells to attach to FN for two hours. Following two hours of cell adhesion, the amount of cells adherent to FN was measured. The next objective was to determine whether treatment of tumor cells with HYD1 results in potentiation of melphalan induced cell death in the BMS co-culture model (SF+A). […] For these studies, the HYD1 and HYD1S were pre-incubated with the […] for 30 minutes, and then cells and culture media containing the peptide were placed into the S-5 culture dish. Myeloma cells were co-cultured for an additional 3 hours with HS-5 cells before the addition of melphalan. Twenty-four hours after drug treatment, apoptosis was measured by Annexin V-PE positive events by FACS analysis. The HS-5 cells constitutively express GFP and thus it is possible to gate GFP negative cells only (myeloma cells) for the apoptotic analysis.

8226 cells [2] = assay: as above; type: cell-based
Description: as §1, §2

8226 MM = assay: SCID-Hu in vivo model, tumor burden by circulating lambda levels; set-up: species or system SCID mice
Description: 8226 cells (50,000 cells per mice) were engrafted into implanted human bone for 28 days. Following tumor engraftment, mice were treated with either 2 mg/Kg HYD1 or HYD1S (I.P. daily). Appropriate mice were treated with 1.5 mg/kg melphalan (mel) on day 29 and day […] (I.P. injections). Tumor burden was measured by lambda levels on day 28 and day 35 (n=3 mice per group).
Tumor burden was measured by circulating lambda levels. On day 28 (before drug treatment) measurements were recorded for each individual mouse and subsequent values obtained weekly are represented as a ratio of day 28 (day X/day 28). N=4 mice per group. HYD1 was administered I.P. at 2 mg/kg daily for 14 days (starting day 28). Melphalan was administered I.P. at 1.5 mg/kg on day 29 and 32.
SCID-Hu model. […] At 28 days, baseline tumor burden was quantified in the sera using either a lambda (8226) or kappa (H929) ELISA kit per manufacture instructions (Bethyl, Montgomery, Tex.) and mice were randomized into treatment groups. […] Tumor burden was assessed weekly by measuring kappa or lambda levels in the sera.
The SCID-Hu model consists of implanting human fetal bone into the mammary mouse fat pad of SCID mice. […] Human paraprotein can be measured in the mouse sera and levels represent a good marker for evaluating tumor burden and response to chemotherapy. […]

[3] = test system: phospho Pyk2 in H929 cells; assay: Phospho-Pyk2 levels in suspension culture (immunoblot); type: cell-based; details: H929 cells cultured in suspension
Description: Based upon the observation that HYD1 increased melphalan induced apoptosis in suspension cultures, whether treatment with HYD1 inhibits phosphorylation of a downstream mediator of β1 integrin signaling (Pyk2) in suspension cultures was investigated.

H929 cells [4] = assay: Cell adhesion to HS-5 bone marrow stroma cells (CMFDA fluorescence); type: cell-based; details: varying concentrations, 30 minutes pre-incubation, two hours adhesion
Description: (§3) FIGS. 31A and 31B are graphs showing that HYD1 blocks adhesion of 8226 but not H929 cells to the bone marrow stroma cell line HS-5. Varying concentrations of either HYD1, HYD1S or a 1:100 dilution of a β1 integrin functional blocking antibody was added to either (FIG. 31A) CMFDA labeled 8226 cells or (FIG. 31B) CMFDA labeled H929 cells for 30 minutes prior to adding fluorescently labeled cells to either HS-5 or BSA coated wells for two hours. Unadhered cells were gently removed and adherent cells were quantified by total fluorescence. The independent experiments were performed and similar results were obtained.
(§4) Quantification of cell adhesion to HS-5 bone marrow stroma cells. Adhesion of 8226 or H929 cells to the HS-5 bone marrow stromal cells was performed as previously described (Nefedova Y et al. Leukemia, 2003; 17:1175-1182). Briefly, HS-5 cells were plated at a density of 500,000 cell/ml in a 96 well plate overnight. […] Cells were then counted and placed at a density of one million cells per ml and varying concentrations of peptide were added for 30 minutes prior to addition of 100 μl of cells to either HS-5 or BSA coated plates. Cells were allowed to adhere for two hours and unbound cells were washed with three gentle washes and total fluorescence was detected by a Victor plate reader, at 485 nm excitation and 535 nm emission. […]

8226 cells [5] = assay: as above; type: cell-based; details: varying concentrations, 30 minutes pre-incubation, two hours adhesion
Description: as §3, §4

“kikmviswkg ([dK][dI][dK][dM][dV][dI][dS][dW][dK]G) [HYD1]” was tested, and the “resistance to melphalan associated with HS-5 co-culture” value (H929 cells [1]; H929 cells) was “reduced resistance”, the “potentiation of melphalan-induced apoptosis in the SF+A model” value (H929 cells [1]; H929 cells co-cultured with HS-5, 50 μg/ml peptide, with melphalan) was “potentiates melphalan-induced apoptosis” and the “resistance to melphalan associated with the bone marrow stroma model” value (8226 cells [2]; 8226 cells) was “completely reversed resistance”. For the same substance, the “potentiation of melphalan-induced apoptosis in the SF+A model” value (8226 cells [2]; 8226 cells co-cultured with HS-5, 50 μg/ml peptide, with melphalan) was “potentiates melphalan-induced apoptosis”, the “tumor burden (lambda levels), combination with melphalan” value (8226 MM; 8226, 2 mg/kg HYD1 I.P. daily with 1.5 mg/kg melphalan I.P.) was “greatest reduction in tumor burden; also recorded: enhances melphalan induced cell death” and the “tumor burden (circulating lambda levels, day X/day 28), single agent” value (8226 MM; 8226, 2 mg/kg I.P. daily for 14 days starting day 28) was “antitumor activity was detected; also recorded: reduces 8226 MM growth in vivo”. For the same substance, the “phospho Pyk2 levels” value [3] was “reduces phospho Pyk2 levels”, the “blocking of H929 cells binding to HS-5 cells” value (H929 cells [4]) was “no effect” and the “blocking of 8226 cells binding to HS-5 cells” value (8226 cells [5]) was “partially blocked”.

Reference: patent US7632814B2, “HYD1 peptides as anti-cancer agents” (University of South Florida, priority 2006, dated 2009)
